Data as given in patent publication US6531464B1, “Methods for the treatment of neurodegenerative disorders using substituted phenanthridinone derivatives” (Inotek Pharmaceutical Corporation, priority 1999, dated 2003).

Assays:
Type in all cases: cell-based
PARS [1] = molecular target: T1, PARS (Mus musculus, UniProt P11103); test: High glucose induced PARS activation in murine lung microvascular endothelial cells; set-up: endogenous in cells; host or cells: primary lung microvascular endothelial cells from wild-type mice; conditions: 30 mM glucose, 6 hours; PJ34 100 nM-3 μM, MnTBAP 100 μM, carboxy-PTIO 300 μM, L-NMA 3 mM, L-NAME 3 mM
Description: In brief, lung microvascular endothelial cells were isolated from wild-type (+/+) and PARS knockout (−/−) mice. Cells were maintained in F12/DMEM (1:1) medium supplemented with endothelial cell growth supplement (100 μg/l heparin and 10% fetal calf serum).
PARS activation was measured in endothelial cells seeded in 6 well tissue culture plates pre-coated with endothelial cell attachment factor (Sigma). Medium was replaced by regular- (see above) or FCS-free HUVEC medium containing 5 mM D-glucose 12 h before the experiment. […] After 10 min, cells were scraped, transferred into Eppendorf tubes and the reaction was stopped by trichloroacetic acid (TCA). Pellets were washed three times in 5% TCA and then solubilized in 500 μl 2% SDS/0.1 N NaOH at 37° C. Contents of the tubes were added to 7 ml ScintiSafe Plus scintillation liquid and radioactivity was measured in a liquid scintillation counter (Wallac, Gaithersburg, Md.). Activity was normalized for protein content.
Target sequence in this assay (P11103 whole entry): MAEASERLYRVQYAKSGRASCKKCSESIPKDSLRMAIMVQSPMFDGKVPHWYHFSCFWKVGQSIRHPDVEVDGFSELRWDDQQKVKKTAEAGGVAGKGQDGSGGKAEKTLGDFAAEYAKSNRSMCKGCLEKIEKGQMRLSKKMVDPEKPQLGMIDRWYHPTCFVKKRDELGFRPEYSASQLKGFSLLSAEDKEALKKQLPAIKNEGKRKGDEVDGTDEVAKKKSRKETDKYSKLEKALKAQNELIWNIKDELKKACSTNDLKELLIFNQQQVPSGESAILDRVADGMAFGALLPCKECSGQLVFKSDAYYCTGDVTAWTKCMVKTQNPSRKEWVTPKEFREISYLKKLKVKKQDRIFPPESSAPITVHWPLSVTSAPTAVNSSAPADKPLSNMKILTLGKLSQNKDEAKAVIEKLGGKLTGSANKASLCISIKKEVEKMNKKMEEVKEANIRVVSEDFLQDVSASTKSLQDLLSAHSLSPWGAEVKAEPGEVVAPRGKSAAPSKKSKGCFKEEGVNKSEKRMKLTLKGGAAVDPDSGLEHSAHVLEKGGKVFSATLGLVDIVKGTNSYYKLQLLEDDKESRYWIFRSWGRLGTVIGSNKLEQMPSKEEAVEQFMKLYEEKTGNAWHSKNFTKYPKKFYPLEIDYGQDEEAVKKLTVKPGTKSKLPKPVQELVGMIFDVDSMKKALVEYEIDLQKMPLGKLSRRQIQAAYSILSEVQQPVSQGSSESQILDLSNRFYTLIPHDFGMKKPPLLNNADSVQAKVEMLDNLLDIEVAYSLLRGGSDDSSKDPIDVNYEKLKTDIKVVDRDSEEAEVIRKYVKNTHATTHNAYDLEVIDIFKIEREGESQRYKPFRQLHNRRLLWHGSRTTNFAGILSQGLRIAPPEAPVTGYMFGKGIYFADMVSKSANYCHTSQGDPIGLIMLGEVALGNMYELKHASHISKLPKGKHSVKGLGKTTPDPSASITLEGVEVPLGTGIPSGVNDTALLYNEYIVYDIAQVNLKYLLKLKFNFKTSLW

nitric oxide (nitrite) = test: LPS-stimulated J774 macrophages: nitric oxide production measured as nitrite; conditions: for production of nitric oxide, measured as nitrite (in words): J774 macrophages exposed to LPS; for EC50: Mus musculus, J774, read-out: Inhibition of Nitrite (J774)
From the text: (§1) In in vitro studies, J774 macrophages were exposed to bacterial lipopolysaccharide (LPS), to induce pro-inflammatory mediator production and cytotoxicity. […] This assay (the LPS-stimulated macrophage) represents an in vitro model of an inflammatory situation. Agents that block inflammatory mediator production in this assay are expected to have anti-inflammatory or immunosuppressive effects in inflammatory or immune diseases.
(§2) The half-maximal inhibitory effect (in μM) of various PJ compounds was assessed under a variety of conditions in immunostimulated J774 macrophages and in peroxynitrite-stimulated thymocytes. Macrophages or thymocytes were first treated with a chosen PJ compound for 30 min at a concentration ranging from 0.1 to 30 μM. The cells were then immunostimulated with LPS (10 μg/ml) or treated with peroxynitrite (30 μM). MIP production in the macrophages was measured at 3 h, TNF and nitric oxide were measured at 24 h, cell viability in the macrophages were measured at 24 h. PARS activation and cell death in thymocytes were measured at 6 h. Measurements of mediator production, PARS activation and cell death were essentially as described in Németh, et al., Eur J Pharmacol 339:215-221, 1997 and Virág and Szabó, Br J Pharmacol, 126: 769-777, 1999. Results in Table 2 are shown as EC50 values (half maximal inhibition of mediator production or restoration of cell viability; in μM): [mean±SEM of n=3-6 determinations].

TNF-α = test: LPS-stimulated J774 macrophages: TNF-α production; conditions: for production of the pro-inflammatory cytokine TNF-α (in words): J774 macrophages exposed to LPS; for EC50: Mus musculus, J774, LPS 10 μg/ml, 30 min pretreatment 0.1 to 30 μM, measured at 24 h, mean±SEM n=3-6, read-out: Inhibition of TNF-α (J774)
From the text: as §1, §2

PARS [2] = molecular target: T1, PARS; test: Peroxynitrite-stimulated thymocytes: PARS activation; conditions: isolated thymocytes exposed to peroxynitrite or hydrogen peroxide
Description: The half-maximal inhibitory effect (in μM) of various PJ compounds was assessed under a variety of conditions in immunostimulated J774 macrophages and in peroxynitrite-stimulated thymocytes. Macrophages or thymocytes were first treated with a chosen PJ compound for 30 min at a concentration ranging from 0.1 to 30 μM. The cells were then immunostimulated with LPS (10 μg/ml) or treated with peroxynitrite (30 μM). MIP production in the macrophages was measured at 3 h, TNF and nitric oxide were measured at 24 h, cell viability in the macrophages were measured at 24 h. PARS activation and cell death in thymocytes were measured at 6 h.
Target sequence in this assay (P11103 2-1013): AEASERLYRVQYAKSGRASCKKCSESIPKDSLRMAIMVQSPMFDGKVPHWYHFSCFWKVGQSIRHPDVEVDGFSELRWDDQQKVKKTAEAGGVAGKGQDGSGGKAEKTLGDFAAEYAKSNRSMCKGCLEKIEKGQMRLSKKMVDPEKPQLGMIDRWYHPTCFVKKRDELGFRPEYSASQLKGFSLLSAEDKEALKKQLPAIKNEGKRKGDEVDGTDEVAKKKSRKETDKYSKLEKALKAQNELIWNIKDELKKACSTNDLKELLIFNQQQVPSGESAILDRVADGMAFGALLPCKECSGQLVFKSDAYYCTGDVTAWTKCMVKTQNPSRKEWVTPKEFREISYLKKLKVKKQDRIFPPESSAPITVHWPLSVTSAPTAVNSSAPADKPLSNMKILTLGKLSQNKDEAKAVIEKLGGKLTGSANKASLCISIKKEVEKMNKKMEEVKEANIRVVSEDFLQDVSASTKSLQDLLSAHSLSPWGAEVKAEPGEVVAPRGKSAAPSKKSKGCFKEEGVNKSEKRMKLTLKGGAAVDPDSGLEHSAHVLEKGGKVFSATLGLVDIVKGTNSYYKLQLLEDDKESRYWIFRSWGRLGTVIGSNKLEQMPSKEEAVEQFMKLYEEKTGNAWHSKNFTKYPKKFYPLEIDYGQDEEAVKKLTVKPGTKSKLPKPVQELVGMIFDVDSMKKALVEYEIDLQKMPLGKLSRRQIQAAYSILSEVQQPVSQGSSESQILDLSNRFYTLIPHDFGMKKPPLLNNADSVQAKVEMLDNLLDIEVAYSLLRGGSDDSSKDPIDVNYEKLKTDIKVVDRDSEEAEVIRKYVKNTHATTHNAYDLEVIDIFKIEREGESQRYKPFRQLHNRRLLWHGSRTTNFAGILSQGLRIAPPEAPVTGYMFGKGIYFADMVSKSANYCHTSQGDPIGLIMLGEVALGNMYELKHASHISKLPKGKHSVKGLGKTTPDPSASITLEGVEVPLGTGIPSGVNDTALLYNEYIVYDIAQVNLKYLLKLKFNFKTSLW

MIP-2 = test: LPS-stimulated J774 macrophages: MIP-2 production; conditions: for production of the chemokine MIP-2 (in words): J774 macrophages exposed to LPS; for EC50: Mus musculus, J774, LPS 10 μg/ml, 30 min pretreatment 0.1 to 30 μM, measured at 3 h, mean±SEM n=3-6, read-out: Inhibition of MIP-2 (J774)
From the text: as §1, §2

thymocytes = test: Peroxynitrite-stimulated thymocytes: cell viability; conditions: for EC50: Thymocyte, peroxynitrite 30 μM, 30 min pretreatment 0.1 to 30 μM, measured at 6 h, mean±SEM n=3-6, read-out: Enhancement of cell viability (thymocyte); for oxidant-induced suppression of the viability of the cells (in words): isolated thymocytes exposed to peroxynitrite or hydrogen peroxide
Description: as §2

J774 macrophages = test: LPS-stimulated J774 macrophages: cell viability; conditions: for viability of the cells suppressed by LPS exposure (in words): J774 macrophages exposed to LPS; for EC50: Mus musculus, J774, LPS 10 μg/ml, 30 min pretreatment 0.1 to 30 μM, measured at 24 h, mean±SEM n=3-6, read-out: Enhancement of cell Viability (J774)
From the text: as §1, §2

MIP-1α = test: LPS-stimulated J774 macrophages: MIP-1α production; conditions: for production of the chemokine MIP-1α (in words): J774 macrophages exposed to LPS; for EC50: Mus musculus, J774, LPS 10 μg/ml, 30 min pretreatment 0.1 to 30 μM, measured at 3 h, mean±SEM n=3-6, read-out: Inhibition of MIP-1α (J774)
From the text: as §1, §2

[3] = LPS 10 μg/ml, 30 min pretreatment 0.1 to 30 μM, measured at 24 h, mean±SEM n=3-6

| Structure (SMILES) | EC50 (nitric oxide (nitrite); [3]) [µM] | EC50 (TNF-α) [µM] | activation of PARS (in words) (PARS [2]) | EC50 (MIP-2) [µM] | EC50 (MIP-1α) [µM] | high glucose induced PARP/PARS activation (PARS [1]) | production of nitric oxide, measured as nitrite (in words) (nitric oxide (nitrite)) | production of the pro-inflammatory cytokine TNF-α (in words) (TNF-α) | production of the chemokine MIP-2 (in words) (MIP-2) | EC50 (thymocytes) [µM] | oxidant-induced suppression of the viability of the cells (in words) (thymocytes) | viability of the cells suppressed by LPS exposure (in words) (J774 macrophages) | EC50 (J774 macrophages) [µM] | production of the chemokine MIP-1α (in words) (MIP-1α) | Inhibition of Nitrite (J774) (nitric oxide (nitrite); [3]) |
| --- | --- | --- | --- | --- | --- | --- | --- | --- | --- | --- | --- | --- | --- | --- | --- |
| COC(=O)[C@@H](N)CCCNC(=N)N[N+](=O)[O-] [L-NAME, N^G-nitro-L-arginine methyl ester] | – | – | – | – | – | significantly reduced | – | – | – | – | – | – | – | – | – |
| CNC(=N)NCCC[C@H](N)C(=O)O [L-NMA, N^G-methyl-L-arginine] | – | – | – | – | – | significantly reduced | – | – | – | – | – | – | – | – | – |
| O=C(O)c1ccc(/C2=C3\C=CC(=N3)/C(c3ccc(C(=O)O)cc3)=c3/cc/c4[n]3[Mn]([Cl])[n]3c2ccc3/C(c2ccc(C(=O)O)cc2)=C2/C=CC(=N2)\C=4c2ccc(C(=O)O)cc2)cc1 [MnTBAP] | – | – | – | – | – | attenuated | – | – | – | – | – | – | – | – | – |
| CC1(C)N([O])C(c2ccc(C(=O)O)cc2)=[N+]([O-])C1(C)C [carboxy-PTIO] | – | – | – | – | – | attenuated | – | – | – | – | – | – | – | – | – |

The next lines start with results.

| EC50 (nitric oxide (nitrite); [3]) [µM] | EC50 (TNF-α) [µM] | activation of PARS (in words) (PARS [2]) | EC50 (MIP-2) [µM] | EC50 (MIP-1α) [µM] | Structure (SMILES) | high glucose induced PARP/PARS activation (PARS [1]) | production of nitric oxide, measured as nitrite (in words) (nitric oxide (nitrite)) | production of the pro-inflammatory cytokine TNF-α (in words) (TNF-α) | production of the chemokine MIP-2 (in words) (MIP-2) | EC50 (thymocytes) [µM] | oxidant-induced suppression of the viability of the cells (in words) (thymocytes) | viability of the cells suppressed by LPS exposure (in words) (J774 macrophages) | EC50 (J774 macrophages) [µM] | production of the chemokine MIP-1α (in words) (MIP-1α) | Inhibition of Nitrite (J774) (nitric oxide (nitrite); [3]) |
| --- | --- | --- | --- | --- | --- | --- | --- | --- | --- | --- | --- | --- | --- | --- | --- |
| 25.4 ± 2.9 | 11.2 ± 1.1 | inhibited | 21.2 ± 2.7 | 15.2 ± 2.1 | O=C(CN1CCCCC1)Nc1ccc2[nH]c(=O)c3ccccc3c2c1 [PJ36] | – | inhibited | inhibited | inhibited | 0.3 ± 0.1 | prevented | restored the viability | 20.2 ± 2.3 | inhibited | – |
| 20.2 ± 1.5 | 6.2 ± 0.42 | inhibited | 14.9 ± 1.3 | 11.3 ± 1.4 | O=C(CN1CCOCC1)Nc1ccc2[nH]c(=O)c3ccccc3c2c1 [PJ38] | – | inhibited | inhibited | inhibited | 0.4 ± 0.2 | prevented | restored the viability | 22.1 ± 2.7 | inhibited | – |
| – | 11.1 ± 0.67 | inhibited | 22.4 ± 1.2 | 10.2 ± 0.95 | CCN(CC)CC(=O)Nc1ccc2[nH]c(=O)c3ccccc3c2c1 [PJ44] | – | inhibited | inhibited | inhibited | 0.2 ± 0.1 | prevented | restored the viability | 16.2 ± 1.9 | inhibited | No effect |
| > 30 | 9.2 ± 0.88 | inhibited | > 30 | > 30 | CN1CCN(CC(=O)Nc2ccc3[nH]c(=O)c4ccccc4c3c2)CC1 [PJ46] | – | inhibited | inhibited | inhibited | 1.3 ± 0.3 | prevented | restored the viability | > 30 | inhibited | – |
